From ChEMBL document CHEMBL5385886, “Design, synthesis and evaluation of nitric oxide releasing derivatives of 2,4-diaminopyrimidine as novel FAK inhibitors for intervention of metastatic triple-negative breast cancer” (Eur J Med Chem, 2023)
The source made the active and inactive calls. The calls are words filed in the database; no cut-off is given here.

Key:
MDA-MB-231 [1] = assay: Antiproliferative activity against human MDA-MB-231 cells assessed as inhibition of cell proliferation at 5 to 20 uM incubated for 72 hrs by MTT assay; assay type: functional, cell-based; conditions: dose 5-20 µM
MDA-MB-231 [2] = assay: Induction of apoptosis in human MDA-MB-231 cells assessed as early apoptotic cells at 1 uM incubated for 72 hrs by Annexin V-FITC/PI staining based flow cytometry analysis (reference value: 2.16%); assay type: functional
MDA-MB-231 [3] = assay: Induction of apoptosis in human MDA-MB-231 cells assessed as late apoptotic cells at 4 uM incubated for 72 hrs by Annexin V-FITC/PI staining based flow cytometry analysis (reference value: 0.11%); assay type: functional
MDA-MB-453 = assay: Antiproliferative activity against human MDA-MB-453 cells assessed as inhibition of cell proliferation incubated for 72 hrs by MTT assay; assay type: functional, cell-based; conditions: MDA-MB-453, 72 h
MDA-MB-231 [4] = assay: Induction of apoptosis in human MDA-MB-231 cells assessed as dead cells at 4 uM incubated for 72 hrs by Annexin V-FITC/PI staining based flow cytometry analysis (reference value: 0.23%); assay type: functional
MDA-MB-231 [5] = assay: Inhibition of stress fibers formation in human MDA-MB-231 cells assessed as reduction in total area at 4 uM incubated for 72 hrs; assay type: functional, cell-based
MDA-MB-231 [6] = assay: Antimigratory activity in human MDA-MB-231 cells incubated for 48 hrs by scratch wound healing assay; assay type: functional, cell-based; conditions: dose 1-4 µM
MDA-MB-231 [7] = assay: Antiproliferative activity against human MDA-MB-231 cells assessed as inhibition of cell proliferation at 1 uM pretreated with carboxy-PTIO at 5 to 20 uM for 1 hr followed by compound addition and further incubated for 72 hrs by MTT assay; assay type: functional, cell-based
Focal adhesion kinase 1 [8] = target: T1, Focal adhesion kinase 1 (Homo sapiens, UniProt Q05397); assay: Inhibition of FAK-mediated signaling pathway in human MDA-MB-231 cells assessed as reduction in MMP-9 protein level at 4 uM pretreated with carboxy-PTIO followed by compound addition and further incubated for 72 hrs by Western blot analysis; assay type: cell-based
Target sequence in this assay (Q05397 2-1052 limits assumed): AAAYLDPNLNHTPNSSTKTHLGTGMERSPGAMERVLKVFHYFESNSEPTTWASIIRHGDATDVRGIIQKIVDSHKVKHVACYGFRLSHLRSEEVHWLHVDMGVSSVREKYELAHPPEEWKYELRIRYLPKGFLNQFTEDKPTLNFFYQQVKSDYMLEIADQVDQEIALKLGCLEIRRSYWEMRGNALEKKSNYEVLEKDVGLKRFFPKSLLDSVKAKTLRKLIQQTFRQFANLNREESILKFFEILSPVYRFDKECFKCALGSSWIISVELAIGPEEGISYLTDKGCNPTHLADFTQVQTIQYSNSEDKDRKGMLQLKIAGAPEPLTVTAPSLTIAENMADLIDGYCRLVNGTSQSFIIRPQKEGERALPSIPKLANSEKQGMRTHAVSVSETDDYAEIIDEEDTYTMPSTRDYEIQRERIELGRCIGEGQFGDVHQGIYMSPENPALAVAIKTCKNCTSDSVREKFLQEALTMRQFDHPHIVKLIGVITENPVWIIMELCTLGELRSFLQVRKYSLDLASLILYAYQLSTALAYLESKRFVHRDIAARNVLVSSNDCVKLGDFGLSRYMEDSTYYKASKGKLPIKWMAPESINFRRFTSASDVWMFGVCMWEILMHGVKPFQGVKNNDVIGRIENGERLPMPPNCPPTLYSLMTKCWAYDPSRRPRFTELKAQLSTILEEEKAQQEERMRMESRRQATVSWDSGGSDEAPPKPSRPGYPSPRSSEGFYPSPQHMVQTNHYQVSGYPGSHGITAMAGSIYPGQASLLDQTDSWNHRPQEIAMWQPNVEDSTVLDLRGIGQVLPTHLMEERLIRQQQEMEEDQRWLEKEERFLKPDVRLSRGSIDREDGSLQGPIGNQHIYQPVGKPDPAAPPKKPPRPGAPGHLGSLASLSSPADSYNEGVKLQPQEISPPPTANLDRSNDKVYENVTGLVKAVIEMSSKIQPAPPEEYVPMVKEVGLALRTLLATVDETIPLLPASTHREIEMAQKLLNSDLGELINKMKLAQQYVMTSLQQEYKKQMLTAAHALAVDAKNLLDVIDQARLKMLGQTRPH

MDA-MB-231 [9] = assay: Potency index, ratio of TAE226 IC50 to test compound IC50 for antiproliferative activity against human MDA-MB-231 cells assessed as inhibition of cell proliferation incubated for 72 hrs by MTT assay; assay type: functional
Focal adhesion kinase 1 [10] = target: T1, Focal adhesion kinase 1; assay: Inhibition of FAK autophosphorylation at Y397 residue in human MDA-MB-231 cells at 4 uM pretreated with carboxy-PTIO followed by compound addition and further incubated for 72 hrs by Western blot analysis; assay type: cell-based
Target sequence in this assay (Q05397 2-1052 limits assumed): as above

Focal adhesion kinase 1 [11] = target: T1, Focal adhesion kinase 1; assay: Inhibition of FAK-mediated signaling pathway in human MDA-MB-231 cells assessed as reduction in MMP-2 protein level at 4 uM pretreated with carboxy-PTIO followed by compound addition and further incubated for 72 hrs by Western blot analysis; assay type: cell-based
Target sequence in this assay (Q05397 2-1052 limits assumed): as above

[12] = Toxicity in BALB/c nude mouse xenografted with human MDA-MB-231 cells assessed as reduction in body weight at 50 to 30 mg/kg, po administered once daily for 30 days and measured every 3 days; assay type: organism-based; conditions: in vivo, 720 h, dose 50-30 mg/kg, time 30 day
MDA-MB-231 [13] = assay: Induction of apoptosis in human MDA-MB-231 cells assessed as dead cells at 2 uM incubated for 72 hrs by Annexin V-FITC/PI staining based flow cytometry analysis (reference value: 0.23%); assay type: functional
MDA-MB-231 [14] = assay: Inhibition of focal adhesion formation in human MDA-MB-231 cells assessed as reduction in total area at 4 uM incubated for 72 hrs; assay type: functional, cell-based
Focal adhesion kinase 1 [15] = target: T1, Focal adhesion kinase 1; assay: Inhibition of FAK (unknown origin)
Target sequence in this assay (Q05397 whole entry): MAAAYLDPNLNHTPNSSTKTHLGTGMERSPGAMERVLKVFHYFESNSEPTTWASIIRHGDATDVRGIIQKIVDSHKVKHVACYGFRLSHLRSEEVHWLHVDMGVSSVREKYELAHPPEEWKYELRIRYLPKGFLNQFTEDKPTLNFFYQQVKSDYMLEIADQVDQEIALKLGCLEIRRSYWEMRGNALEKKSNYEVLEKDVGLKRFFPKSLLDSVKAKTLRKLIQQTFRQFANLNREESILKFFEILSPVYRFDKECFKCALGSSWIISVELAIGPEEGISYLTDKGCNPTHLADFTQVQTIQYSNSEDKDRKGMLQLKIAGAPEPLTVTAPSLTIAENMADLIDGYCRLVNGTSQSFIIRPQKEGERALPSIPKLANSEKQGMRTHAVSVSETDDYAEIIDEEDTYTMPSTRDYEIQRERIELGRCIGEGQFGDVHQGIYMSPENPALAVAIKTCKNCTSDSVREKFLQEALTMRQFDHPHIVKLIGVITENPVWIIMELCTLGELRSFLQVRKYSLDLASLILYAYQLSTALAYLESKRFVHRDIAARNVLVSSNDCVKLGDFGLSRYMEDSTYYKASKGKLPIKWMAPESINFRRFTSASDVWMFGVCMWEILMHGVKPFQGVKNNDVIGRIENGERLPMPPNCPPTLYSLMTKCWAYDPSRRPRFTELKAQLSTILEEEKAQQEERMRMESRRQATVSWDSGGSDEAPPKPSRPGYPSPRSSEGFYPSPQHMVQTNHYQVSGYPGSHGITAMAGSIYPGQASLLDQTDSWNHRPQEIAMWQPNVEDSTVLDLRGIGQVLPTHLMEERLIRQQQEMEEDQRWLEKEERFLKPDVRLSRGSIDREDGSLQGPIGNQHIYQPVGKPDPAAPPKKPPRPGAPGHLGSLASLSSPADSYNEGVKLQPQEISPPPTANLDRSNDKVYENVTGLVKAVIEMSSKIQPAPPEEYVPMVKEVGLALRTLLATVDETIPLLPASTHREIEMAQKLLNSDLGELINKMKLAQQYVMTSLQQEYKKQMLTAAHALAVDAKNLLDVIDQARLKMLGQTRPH

MDA-MB-231 [16] = assay: Induction of apoptosis in human MDA-MB-231 cells assessed as live cells at 1 uM incubated for 72 hrs by Annexin V-FITC/PI staining based flow cytometry analysis (reference value: 97.51%); assay type: functional
Focal adhesion kinase 1 [17] = target: T1, Focal adhesion kinase 1; assay: Inhibition of FAK-mediated signaling pathway in human MDA-MB-231 cells assessed as reduction in MMP-9 protein level incubated for 72 hrs by Western blot analysis; assay type: cell-based; conditions: dose 1-4 µM
Target sequence in this assay (Q05397 2-1052 limits assumed): as the sequence (Q05397 2-1052 limits assumed) above

[18] = Cytotoxicity against human MCF-10A cells assessed as inhibition of cell proliferation incubated for 72 hrs by MTT assay; assay type: toxicity, cell-based
MDA-MB-231 [19] = assay: Induction of apoptosis in human MDA-MB-231 cells assessed as early apoptotic cells at 2 uM incubated for 72 hrs by Annexin V-FITC/PI staining based flow cytometry analysis (reference value: 2.16%); assay type: functional
MDA-MB-231 [20] = assay: Induction of apoptosis in human MDA-MB-231 cells assessed as live cells at 4 uM incubated for 72 hrs by Annexin V-FITC/PI staining based flow cytometry analysis (reference value: 97.51%); assay type: functional
[21] = Toxicity in BALB/c nude mouse xenografted with human MDA-MB-231 cells assessed as animal death at 50 to 30 mg/kg, po administered once daily for 30 days; assay type: organism-based; conditions: in vivo, 720 h, dose 50-30 mg/kg, time 30 day
MDA-MB-231 [22] = assay: Induction of apoptosis in human MDA-MB-231 cells assessed as late apoptotic cells at 2 uM incubated for 72 hrs by Annexin V-FITC/PI staining based flow cytometry analysis (reference value: 0.11%); assay type: functional
[23] = Selectivity index, ratio of IC50 for human MCF-10A cells to IC50 for human MDA-MB-231 cells; assay type: toxicity; conditions: MCF-10A cells versus MDA-MB-231 cells, read-out: Ratio IC50
MDA-MB-231 [24] = assay: Inhibition of focal adhesion formation in human MDA-MB-231 cells assessed as reduction in anti-vinculin antibodies fluorescence signal at 4 uM pretreated with carboxy-PTIO for 1 hr followed by compound addition and further incubated for 72 hrs by confocal microscopic analysis; assay type: functional, cell-based
MDA-MB-231 [25] = assay: Inhibition of focal adhesion formation in human MDA-MB-231 cells assessed as reduction in anti-vinculin antibodies fluorescence signal at 4 uM incubated for 72 hrs by confocal microscopic analysis; assay type: functional, cell-based
Focal adhesion kinase 1 [26] = target: T1, Focal adhesion kinase 1; assay: Inhibition of FAK-mediated signaling pathway in human MDA-MB-231 cells assessed as reduction in MMP-2 protein level incubated for 72 hrs by Western blot analysis; assay type: cell-based; conditions: dose 1-4 µM
Target sequence in this assay (Q05397 2-1052 limits assumed): as above

MDA-MB-231 [27] = assay: Inhibition of stress fibers formation in human MDA-MB-231 cells assessed as reduction in number of stress fibers at 4 uM incubated for 72 hrs by quantitative analysis; assay type: functional, cell-based
MDA-MB-231 [28] = assay: Induction of apoptosis in human MDA-MB-231 cells assessed as early apoptotic cells at 4 uM incubated for 72 hrs by Annexin V-FITC/PI staining based flow cytometry analysis (reference value: 2.16%); assay type: functional
MDA-MB-231 [29] = assay: Inhibition of stress fibers formation in human MDA-MB-231 cells assessed as reduction in FITC-conjugated phalloidin fluorescence signal at 4 uM incubated for 72 hrs by confocal microscopic analysis; assay type: functional, cell-based
MDA-MB-231 [30] = assay: Induction of apoptosis in human MDA-MB-231 cells assessed as live cells at 2 uM incubated for 72 hrs by Annexin V-FITC/PI staining based flow cytometry analysis (reference value: 97.51%); assay type: functional
MDA-MB-231 [31] = assay: Antiproliferative activity against human MDA-MB-231 cells assessed as inhibition of cell proliferation at 1 uM incubated for 72 hrs by MTT assay; assay type: functional, cell-based
Focal adhesion kinase 1 [32] = target: T1, Focal adhesion kinase 1; assay: Inhibition of FAK autophosphorylation at Y397 residue in human MDA-MB-231 cells incubated for 72 hrs by Western blot analysis; assay type: cell-based; conditions: dose 1-4 µM
Target sequence in this assay (Q05397 2-1052 limits assumed): as above

MDA-MB-231 [33] = assay: Antiproliferative activity against human MDA-MB-231 cells assessed as inhibition of cell proliferation incubated for 72 hrs by MTT assay; assay type: functional, cell-based; conditions: MDA-MB-231, 72 h
MDA-MB-231 [34] = assay: Effect on FAK protein expression in human MDA-MB-231 cells at 1 to 4 uM incubated for 72 hrs by Western blot analysis; assay type: functional, cell-based; conditions: dose 1-4 µM
MDA-MB-231 [35] = assay: Induction of apoptosis in human MDA-MB-231 cells assessed as dead cells at 1 uM incubated for 72 hrs by Annexin V-FITC/PI staining based flow cytometry analysis (reference value: 0.23%); assay type: functional
Focal adhesion kinase 1 [36] = target: T1, Focal adhesion kinase 1; assay: Inhibition of FAK-mediated signaling pathway in human MDA-MB-231 cells assessed as reduction in phosphorylated AKT protein level at 4 uM pretreated with carboxy-PTIO followed by compound addition and further incubated for 72 hrs by Western blot analysis; assay type: cell-based
MDA-MB-231 [37] = assay: Antitumor activity against human MDA-MB-231 cells xenografted in po dosed BALB/c nude mouse assessed as reduction in number of lung tumor nodules administered once daily for 30 days; assay type: functional, organism-based; conditions: dose 15-30 mg/kg, time 30.0 day
MDA-MB-231 [38] = assay: Antiproliferative activity against human MDA-MB-231 cells assessed as inhibition of cell proliferation at 5 uM incubated for 72 hrs by MTT assay relative to control; assay type: functional
MDA-MB-231 [39] = assay: Inhibition of focal adhesion formation in human MDA-MB-231 cells assessed as reduction in number of focal adhesions at 4 uM incubated for 72 hrs by quantitative analysis; assay type: functional, cell-based
Focal adhesion kinase 1 [40] = target: T1, Focal adhesion kinase 1; assay: Inhibition of FAK-mediated signaling pathway in human MDA-MB-231 cells assessed as reduction in phosphorylated AKT protein level incubated for 72 hrs by Western blot analysis; assay type: cell-based; conditions: dose 1-4 µM
MDA-MB-157 = assay: Antiproliferative activity against human MDA-MB-157 cells assessed as inhibition of cell proliferation incubated for 72 hrs by MTT assay; assay type: functional, cell-based; conditions: MDA-MB-157, 72 h
MDA-MB-231 [41] = assay: Inhibition of cell invasion in human MDA-MB-231 cells assessed as reduction in number of invasive cells incubated for 48 hrs by crystal violet staining based inverted microscopic analysis; assay type: functional; conditions: dose 1-4 µM
MDA-MB-231 [42] = assay: Induction of apoptosis in human MDA-MB-231 cells assessed as late apoptotic cells at 1 uM incubated for 72 hrs by Annexin V-FITC/PI staining based flow cytometry analysis (reference value: 0.11%); assay type: functional
MDA-MB-231 [43] = assay: Inhibition of stress fibers formation in human MDA-MB-231 cells assessed as reduction in FITC-conjugated phalloidin fluorescence signal at 4 uM pretreated with carboxy-PTIO for 1 hr followed by compound addition and further incubated for 72 hrs by confocal microscopic analysis; assay type: functional, cell-based
MDA-MB-231 [44] = assay: Induction of NO production in human MDA-MB-231 cells incubated for 72 hrs by DAF-FM-DA dye based flow cytometry analysis; assay type: functional, cell-based; conditions: dose 1-4 µM

With `CC1(C)N(O)C(c2ccc(C(=O)O)cc2)=[N+]([O-])C1(C)C` the Activity (MDA-MB-231 [1]) was “inactive”.
With `CNC(=O)c1ccccc1Nc1nc(Nc2ccc(CC(=O)OCCCCCCCCOc3no[n+]([O-])c3S(=O)(=O)c3ccccc3)cc2)ncc1Cl` the Activity (MDA-MB-231 [2]) was 12.6%, the Activity (MDA-MB-231 [3]) was 13.94% and the IC50 (MDA-MB-453) was 159 nM. The Activity (MDA-MB-231 [4]) was 3.34%, the inhibition (MDA-MB-231 [5]) was “Active” and the Activity (MDA-MB-231 [6]) was “Dose-Dependent Effect”. For the same molecule, the Activity (MDA-MB-231 [7]) was “inactive”, the inhibition (Focal adhesion kinase 1 [8]) was “inactive” and the “Ratio IC50” value (MDA-MB-231 [9]) was roughly 10. The inhibition (Focal adhesion kinase 1 [10]) was “inactive”, the inhibition (Focal adhesion kinase 1 [11]) was “inactive” and the Activity [12] was “Non-Toxic”. The Activity (MDA-MB-231 [13]) was 1.38%, the inhibition (MDA-MB-231 [14]) was “Active” and the IC50 (Focal adhesion kinase 1 [15]) was 27.4 nM. The Activity (MDA-MB-231 [16]) was 77.01%, the inhibition (Focal adhesion kinase 1 [17]) was “Dose-Dependent Effect” and the IC50 at 72 h [18] was 2400 nM. For the same molecule, the Activity (MDA-MB-231 [19]) was 9.88%, the Activity (MDA-MB-231 [20]) was 26% and the Activity [21] was “Non-Toxic”. For the same molecule, the Activity (MDA-MB-231 [22]) was 13.83%, the selectivity ratio [23] was 19.1 and the inhibition (MDA-MB-231 [24]) was “inactive”. For the same molecule, the inhibition (MDA-MB-231 [25]) was “Active”, the inhibition (Focal adhesion kinase 1 [26]) was “Dose-Dependent Effect” and the inhibition (MDA-MB-231 [27]) was “Active”. The Activity (MDA-MB-231 [28]) was 56.72%, the inhibition (MDA-MB-231 [29]) was “Active” and the Activity (MDA-MB-231 [30]) was 74.91%. The Activity (MDA-MB-231 [31]) was “Active”, the inhibition (Focal adhesion kinase 1 [32]) was “Dose-Dependent Effect” and the IC50 (MDA-MB-231 [33]) was 126 nM. The Activity (MDA-MB-231 [34]) was “inactive”, the Activity (MDA-MB-231 [35]) was 3.94% and the inhibition (Focal adhesion kinase 1 [36]) was “inactive”. The Activity (MDA-MB-231 [37]) was “Dose-Dependent Effect”, the inhibition at 5 µM (MDA-MB-231 [38]) was greater than 92% and the inhibition (MDA-MB-231 [39]) was “Active”. For the same molecule, the inhibition (Focal adhesion kinase 1 [40]) was “Dose-Dependent Effect”, the IC50 (MDA-MB-157) was 167 nM and the inhibition (MDA-MB-231 [41]) was “Dose-Dependent Effect”. For the same molecule, the Activity (MDA-MB-231 [42]) was 6.46%, the inhibition (MDA-MB-231 [43]) was “inactive” and the Activity (MDA-MB-231 [44]) was “Dose-Dependent Effect”.
